Assay results as given in patent US20190046649A1, “DELIVERY DEVICE AND USE THEREOF FOR LOADING CELL PLASMA MEMBRANES” (UNIVERSITY OF MARYLAND, BALTIMORE COUNTY, priority 2017, published 2019).
No end group written: not given here.

Assays:
CD8+ T cells = test: Proliferation of depoted T cells after 3 d stimulation with 1:1 anti-CD3/28 beads (CFSE dilution); assay type: cell-based, murine; settings: 1:1 beads
Experimental: T-Cells were cultured with 5 μM of soluble lipo-CpG or depoted with lipo-CpG, and CFSE dilution was measured by flow cytometry. B) Quantification of division index of CD4^+ T-cells as measured by CFSE dilution from flow cytometry. n=3 independent experiments, one-way ANOVA with Krustal-Wallis test. *p<0.05 between the unstim condition.
CD45.1+ B cells were depoted with lipo-CpG, CpG, or nothing. These were cultured alone or 1:1 mixed with bystander (no depot) CD45.1− B cells. B cell activation was shown as fold intensity CD86 measured by flow cytometry after 3 d. B) CD8+ T cells were depoted with Pam2CSK4 or nothing, and then co-cultured 1:1 with bystander CD45.1+ B cells for 3 d. B cell activation was measured by CD86 and compared to a continuous exposure Pam2CSK4 control. C) Representative histograms showing CFSE dilution (proliferation) of CD8+ T cells after 3 d stimulation with 1:1 anti-CD3/28 beads. Where indicated, cells were depoted or cultured with continuous soluble lipo-CpG (left) or Pam2CSK4 (right). Bars=median, whiskers=range; n=3.
B cells depoted with lipo-CpG had sustained activation up to 3 d (FIG. 10 A). […] The ability of a surface sensed lipo-Av to activate neighboring cells was also tested, using Pam2CSK4 which engages surface TLR2.

T-cells = test: Insertion (depoting) of TLR2 ligands into cell membranes and intracellular localisation; assay type: cell-based, murine
Experimental: A) Structure of synthesized lipo-ligand, which are diacyl 18-carbon tails conjugated to: unmethylated CpG oligonucleotide ([…]) (SEQ ID NO: 1), or a poly(ethylene) glycol (PEG) linker plus a melanoma antigen, GP10025-33 (KVPRNQDWL) (SEQ ID NO: 2). B) Schematic of lipo-ligand depoting into cell membrane surface. C-D, CD4+ and CD8+ T-cells are identified by flow cytometry and median fluorescence intensity (MFI) of labeled ligand is determined on each cell subset as a function of time and ligand concentration. C) Fluoroscein (FAM)-labeled lipo-CpG, a TLR9 ligand, depoted into murine splenic immune cells. D) Pam2CSK4, a TLR2 ligand, depoted into murine splenic immune cells. E) MFI of lipo-GP100 is determined by flow cytometry as a function of cell density and depot volume. F-G, Isolated T-cells are depoted by varying depot time or ligand concentration, and quantified as average number of ligand per T-cell by enzyme-linked immunosorbant assay (ELISA) F) Lipo-CpG depoted into isolated T-cells. G) Pam2CSK4 and Pam3CSK4, another TLR2 ligand, respectively depoted into isolated T-cells. H) Average number of each respective ligand per splenic immune cell after 1 hour depot. n=3-5 independent experiments. Data depict m±s.d.
A) Splenic immune cells were depoted with 10 μg/ml of Pam2CSK4 for 1 h. Depoted cells were resting for up to 1 h versus nondepoted cells with addition of 100 ng/ml of soluble Pam2CSK4. Phosphorylated p38 was measured compared to negative controls by western blotting. n=2 independent experiments. Data depict m±s.d. B) Isolated T-cells were depoted with TLR2 ligand and MFI of activation markers, MHCII and CD69, on bystander B-cells were measured after 2-day culture by flow cytometry and normalized to unstimulated B-cells (fold MFI). n=5-6 independent experiments, one-way ANOVA with Kruskal-Wallis test. Data depict m±s.d. C) Splenocytes were cultured in 2 μg/ml of Concanavalin A and 10 ng/ml of IL-7 for 2 days, and isolated T-cells were then TLR2 ligand-depoted for 1 hour. […]

bystander B cells (TLR2) = test: TLR2 ligand-depoted T cells co-cultured with bystander B cells, activation markers by flow cytometry; assay type: cell-based, mouse
Experimental: A) Splenic immune cells were depoted with 10 μg/ml of Pam2CSK4 for 1 h. Depoted cells were resting for up to 1 h versus nondepoted cells with addition of 100 ng/ml of soluble Pam2CSK4. Phosphorylated p38 was measured compared to negative controls by western blotting. n=2 independent experiments. Data depict m±s.d. B) Isolated T-cells were depoted with TLR2 ligand and MFI of activation markers, MHCII and CD69, on bystander B-cells were measured after 2-day culture by flow cytometry and normalized to unstimulated B-cells (fold MFI). n=5-6 independent experiments, one-way ANOVA with Kruskal-Wallis test. Data depict m±s.d. C) Splenocytes were cultured in 2 μg/ml of Concanavalin A and 10 ng/ml of IL-7 for 2 days, and isolated T-cells were then TLR2 ligand-depoted for 1 hour. Depoted T-cells were then resting for 0 h, 3 h, 24 h, or 48 h, before T-cells were chemically fixed and co-cultured for 2 days with CD45.1^+ bystander B-cells. Bystander B-cells were used as a reporter to determine TLR2 ligand surface persistence on depoted T-cells by their fold MFI of MHCII and CD69. n=5 independent experiments. Data depict m±s.d.
A) Pam2CSK4-biotin at indicated concentrations was depoted into CD3+CD8+ or CD3+CD8− T-cells and stained with streptavidin (SAV) PE as determined by flow cytometry. B) Paracrine signaling of resting vs Concanavalin A/IL-7-activated TLR2 ligand-depoted CD8+ T-cells. Activated CD8+ T-cells were isolated from splenocytes cultured in 2 μg/ml of Concanavalin A and 10 ng/ml of IL-7 for 2 days. TLR2 ligand was depoted and processed by CD8+ T-cells for 0 h, 3 h, 6 h, 24 h, or 48 h, before T-cells were chemically fixed and cultured for 2 days with bystander B-cells to determine fold MFI intensity of MHC II, CD69, and CD86 (C).
CD45.1+ B cells were depoted with lipo-CpG, CpG, or nothing. These were cultured alone or 1:1 mixed with bystander (no depot) CD45.1− B cells. B cell activation was shown as fold intensity CD86 measured by flow cytometry after 3 d. B) CD8+ T cells were depoted with Pam2CSK4 or nothing, and then co-cultured 1:1 with bystander CD45.1+ B cells for 3 d. B cell activation was measured by CD86 and compared to a continuous exposure Pam2CSK4 control. […]
After determining that depoting was a robust process, the function of depoted Pam2CSK4 to activate neighboring immune cells was tested. Depoted T cells were co-cultured with responders (B cells) and the expression of activation markers was determined after 2 days of co-culture at a 1:1 T cell:B cell ratio.
In FIG. 11, Pan T cells were isolated from mice and either left alone (blue, red) or depoted with Pam2CSK4 for 1 h (green). […] Expression levels of activation markers were analyzed by flow after 2 days and fluorescence intensity normalized to B cells activated with polyclonal stimulus. […]

[1] = test system: CD8+ T cells with B16F10 tumor cells; test: Proliferation of depoted CD8+ T cells with αCD3/28 beads in the presence of immunosuppressive tumor cells; assay type: cell-based, murine; settings: 3 days coculture with αCD3/28 beads
Experimental: A) Flow cytometry histograms showing CFSE dilution of CD8^+ T-cells after 3-day stimulation with ratios of 1:1 αCD3/CD28 beads and 1:5 B16F10 tumor cells (blue text). T-Cells were cultured with 10 μg/ml of soluble Pam2CSK4 or Pam3CSK4 either alone or in combination with 5 μM of soluble lipo-CpG (solid fill), or depoted with the same respective combinations (tinted fill). B) Quantification of percent of CD8^+ T-cells that divided >5 times compared to undivided CD8^+ T-cells as measured by CF SE dilution from flow cytometry. C) IL-2 production from CD8^+ T-cell supernatents after 3 days of proliferation. n=1 independent experiment.
The proliferative capacity of depoted CD8+ T cells was evaluated after 3 days of coculture with αCD3/28 beads in the presence or absence of immunosuppressive tumor cells.

[2] = test system: resting memory CD4+ T cells; settings: cited from earlier work
cognate CD8+ T-cells = test: Antigen presentation by lipo-GP100-depoted B-cells to cognate CD8+ T-cells (T-cell proliferation, CFSE dilution); assay type: cell-based, murine
Experimental: A) Activated B-cells were isolated from splenocytes and cultured with 1 μg/ml TLR7 ligand R848 and αIgM antibody for 2 days. Resting versus activated B-cells were depoted with lipo-GP100-FAM for 1 hour. Lipo-GP100-FAM and forward scatter fold increase was measured by flow cytometry. B) LipoGP100-depoted resting B-cells presented to and proliferated cognate CD8^+ T-cells at 33 μM of 1 h depoted lipo-GP100 after 3-day culture as measured by CFSE dilution with flow cytometry. Indicated values are percent CD8^+ T-cells that divided at least once. C) BMDCs were cultured with 20 ng/ml of GM-CSF for 7 days before harvested and either depoted with 33 μM of lipo-GP100 or pulsed with 33 μM of short GP100 (KVPRNQDWL) (SEQ ID NO: 2) peptide, along with resting B-cells. These modified APCs were co-cultured with pmel-1 GP100-specific CD8^+ T-cells for 3 days to determine pmel-1 T-cell proliferation by flow cytometry. n=1 independent experiment.
Antigen processing in APC B-cells by A) endocytosis, B) direct binding affinity on APC surface, or C) depoting. 33 uM of indicated GP100 antigen is conferred to APC B-cells for 1 h, then processed by B-cells in aforementioned antigen processing mechanisms for 0 h, 3 h, or 16 h, before B-cells are chemically fixed and cultured with cognate CD8^+ T-cells for 3 days to determine T-cell proliferation. n=1 independent experiment.
An diacyl (C18) lipid-conjugated ligands (lipo-ligands) was engineered that can be depoted into cell membranes in a time- and concentration-dependent fashion for precise and robust delivery up to 241.5±9.6 (mean±SD) fold increase compared to nondepoted cells. […] B) Representative histograms of fluorescein-labeled (FAM-labeled) lipo-GP100 fluorescence on B-cell surface as functions of depot time and lipo-GP100 concentration measured by flow cytometry. Median fluorescence intensity (MFI) of lipo-GP100 FAM fold increase on B-cells from non-depoted B-cells by flow cytometry. […]

Substance	effect of depoting on CD8+ T cell proliferation in response to αCD3/28 beads (CD8+ T cells)	insertion into cell membranes (T-cells)	intracellular localisation by microscopy (T-cells; 24 h post-depoting)	B cell activation by depoted CD8+ T cells relative to continuous exposure control (bystander B cells (TLR2); 1:1 co-culture 3 d, CD86)	duration of trans signaling and activation of B cells by depoted CD8+ T cells (bystander B cells (TLR2); 1:1 co-culture, CD86) [days]	activation of neighboring responder B cells by depoted T cells relative to soluble ligand (bystander B cells (TLR2); 2 days co-culture, 1:1 T cell:B cell ratio, depoted 1 h)	persistence of bystander-activating activity of depoted T cells (bystander B cells (TLR2); data not shown)	proliferative capacity of depoted T cells in the presence of tumor cells [1]	HIV latency reactivation ("shock") activity [2]	manner of antigen presentation by APC B-cells to cognate CD8+ T-cells (cognate CD8+ T-cells; 33 uM antigen 1 h, processed 0 h, 3 h or 16 h, fixed, 3-day culture)	B-cells as APCs versus BMDCs presenting antigen, MHCI-restricted (cognate CD8+ T-cells; 33 μM depoted, 3-day co-culture with pmel-1 CD8+ T-cells)	duration of antigen presentation from B-cells to cognate CD8+ T-cells (cognate CD8+ T-cells; GP100 25-33 antigen delivered by depoting) [h]
Pam2CSK4	did not	can be rapidly inserted into cell membranes	colocalizing with early endosome antigen 1 (EEA1)	nearly matching continuously exposed control	3	nearly equivalent to high doses of Pam2CSK4 in solution	persists for multiple days	recovered proliferative capacity in the presence of tumor cells	–	–	–	–
Pam3CSK4	–	can be rapidly inserted into cell membranes	–	–	–	–	–	recovered proliferative capacity in the presence of tumor cells	effective “shock” agent	–	–	–
lipo-GP100: diacyl 18-carbon tails conjugated to a PEG linker plus melanoma antigen GP10025-33 (KVPRNQDWL) (SEQ ID NO: 2) (also: diacyl C18 lipid tails via PEG linker, site not given here)	–	–	–	–	–	–	–	–	–	delayed and prolonged manner	comparable to bone marrow derived cells (BMDCs)	> 16
